According to patent US20170131285A1, “METHODS AND COMPOSITIONS FOR DIAGNOSING, MONITORING AND TREATING CANCER” (INSERM (Institut National de la Sante et de la Recherche …, priority 2014, published 2017):
Where no end group is shown, it is not given here.

Test system: MSC2 cells
Experiment: MSC2 proliferation (RTCA-DP, BrdU)
Format: cell-based
Conditions: exosomes from B16F10, A8 16 μM and 32 μM
Description: FIG. 9: TDE and A8 effects on MSC2 and MDSC proliferation. A) Dynamic monitoring of in vitro MSC2 cell proliferation using the RTCA-DP system (Real-Time Cell Analyzer). MSC2 were incubated or not for 11 h with exosomes (from B16F10) in the absence or presence of A8 (16 μM and 32 μM). Cell index values were measured every 30 seconds (n=3). B) MSC2 were incubated or not for 24 h with exosomes (from B16F10) in the absence or presence of A8 (16 μM). Then, cells were labelled with BrdU and incorporation was determined by flow cytometry (n=3). C) MDSC were treated with exosomes (from B16F10) in the absence or presence of A8 ([…]) for 24 hours and then analyzed for proliferation by Cellometer-mini. *p<0.05.
MSC2 cells proliferation were analyzed by to different techniques. First, MSC2 (1·10^4) were seeded onto 16-well plates with medium containing 10% FBS and incubated for 34 hours. […] Into each well of the micro-electronic sensor transendothelial electric resistance (TER) was measured by xCELLigence real time cell analyzer DP system (Roche). TER was measured every 30 s and then normalized to the initial value. […] MDSC proliferation was analyzed by cell counting. MDSC cells (1·10^6) from spleen of naive mice (see MDSC isolation section) were treated or not with exosomes (from B16F10) in the absence or presence of A8 (16 μM) for 24 hours and then analyzed for viability by Cellometer-mini (Ozyme).

## SPWPRPTY [Aptamer A8, SPWPRPTY]
  TDE-induced proliferation of MSC2: blocked
